Experimental data taken from patent US4864023A, “Pyrido(3,2,1-IJ)-1,3,4-benzoxadiazine derivatives” (priority 1988, dated 1989).
Converted amounts (≈) assume the structure as drawn. Read-outs that look alike come from different tables or passages of the source.

Legend:
Test in all cases: in vitro antibacterial activity, standard agar dilution method
Format in all cases: cell-based
[1] = system: Staphylococcus epidermidis IFO 12993; conditions: IFO12993, aerobic, read-out: minimum inhibitory concentration (MIC)
[2] = system: Proteus vulgaris OX19 ATCC 6898; conditions: ATCC6898, aerobic, read-out: minimum inhibitory concentration (MIC)
[3] = system: Alcaligenes faecalis IFO 13111; conditions: IFO13111, aerobic, read-out: minimum inhibitory concentration (MIC)
[4] = system: Pseudomonas aeruginosa NR 2950; conditions: NR2950, aerobic, read-out: minimum inhibitory concentration (MIC)
[5] = system: Bordetella bronchiseptica ATCC 4617; conditions: ATCC4617, aerobic, read-out: minimum inhibitory concentration (MIC)
[6] = system: Enterococcus faecalis NR 2943; conditions: NR2943, aerobic, read-out: minimum inhibitory concentration (MIC)
[7] = system: Staphylococcus epidermidis NR 2942; conditions: NR2942, aerobic, read-out: minimum inhibitory concentration (MIC)
[8] = system: Escherichia coli NR 2630; conditions: NR2630; Escherichia coli NR 2630; aerobic; agar dilution; read-out: minimum inhibitory concentration (MIC)
[9] = system: Bacillus subtilis PCI 219; conditions: PCI219, aerobic, read-out: minimum inhibitory concentration (MIC)
[10] = system: Pseudomonas aeruginosa A3; conditions: aerobic, read-out: minimum inhibitory concentration (MIC)
[11] = system: Proteus rettgeri ATCC 14505; conditions: Providencia rettgeri, ATCC14505, aerobic, read-out: minimum inhibitory concentration (MIC)
[12] = system: Enterobacter cloacae NR 2946; conditions: NR2946, aerobic, read-out: minimum inhibitory concentration (MIC)
[13] = system: Escherichia coli NIHJ JC-2; conditions: NIHJJC2, aerobic, read-out: minimum inhibitory concentration (MIC)
[14] = system: Staphylococcus aureus Smith; conditions: read-out: minimum inhibitory concentration (MIC)
[15] = system: Citrobacter freundii IFO 12681; conditions: IFO12681, aerobic, read-out: minimum inhibitory concentration (MIC)
[16] = system: Salmonella typhimurium IFO 12529; conditions: Salmonella enterica, aerobic, read-out: minimum inhibitory concentration (MIC)
[17] = system: Staphylococcus aureus NR 2855
[18] = system: Staphylococcus aureus FDA 209P JC-1; conditions: FDA209P, read-out: minimum inhibitory concentration (MIC)
[19] = system: Serratia marcescens IFO 12648; conditions: IFO12648, aerobic, read-out: minimum inhibitory concentration (MIC)
[20] = system: Klebsiella pneumoniae FDA PCI 602; conditions: FDAPCI602, aerobic, read-out: minimum inhibitory concentration (MIC)
[21] = system: Enterobacter aerogenes NR 2945; conditions: Klebsiella aerogenes, NR2945, aerobic, read-out: minimum inhibitory concentration (MIC)
[22] = Staphylococcus aureus Smith, aerobic, agar dilution
[23] = NR2855, Staphylococcus aureus NR 2855, aerobic, agar dilution, read-out: minimum inhibitory concentration (MIC)
[24] = Staphylococcus aureus FDA 209P JC-1, aerobic, agar dilution

MIC [1] [µg/mL] | MIC [2] [µg/mL] | MIC [3] [µg/mL] | MIC [4] [µg/mL] | MIC [5] [µg/mL] | MIC [6] [µg/mL] | MIC [7] [µg/mL] | MIC [8] [µg/mL] | MIC [9] [µg/mL] | MIC [10] [µg/mL] | MIC [11] [µg/mL] | MIC [12] [µg/mL] | MIC [13] [µg/mL] | MIC [14, 22] [µg/mL] | MIC [15] [µg/mL] | MIC [16] [µg/mL] | MIC [17, 23] [µg/mL] | MIC [19] [µg/mL] | MIC [20] [µg/mL] | MIC [21] [µg/mL] | Structure (SMILES) | other results
12.5 (≈ 27.9 µM) | 0.78 (≈ 1.74 µM) | 100 (≈ 223 µM) | 50 (≈ 112 µM) | 50 (≈ 112 µM) | 100 (≈ 223 µM) | 12.5 (≈ 27.9 µM) | 0.39 (≈ 0.87 µM) | 3.13 (≈ 6.98 µM) | 3.13 (≈ 6.98 µM) | 3.13 (≈ 6.98 µM) | 0.78 (≈ 1.74 µM) | 1.56 (≈ 3.48 µM) | 6.25 (≈ 13.9 µM) | 0.39 (≈ 0.87 µM) | 0.39 (≈ 0.87 µM) | 12.5 (≈ 27.9 µM) | 3.13 (≈ 6.98 µM) | 1.56 (≈ 3.48 µM) | 0.39 (≈ 0.87 µM) | CN1COc2c(N3CCN(C(=O)CCC(=O)O)CC3)c(F)cc3c(=O)c(C(=O)O)cn1c23 [Example 49, 10-[4-(3-carboxypropionyl)-1-piperazinyl]-9-fluoro-3-methyl-7-oxo-2,3-dihydro-7H-pyrido[3,2,1-ij]-1,3,4-benzoxadiazine-6-carboxylic acid] | MIC [18, 24]: 6.25 µg/mL (≈ 13.9 µM)
0.39 (≈ 1.04 µM) | 0.1 (≈ 0.266 µM) | 50 (≈ 133 µM) | 12.5 (≈ 33.2 µM) | 6.25 (≈ 16.6 µM) | 3.13 (≈ 8.32 µM) | 0.39 (≈ 1.04 µM) | 0.1 (≈ 0.266 µM) | 0.1 (≈ 0.266 µM) | 0.78 (≈ 2.07 µM) | 12.5 (≈ 33.2 µM) | 0.78 (≈ 2.07 µM) | 0.2 (≈ 0.531 µM) | 0.1 (≈ 0.266 µM) | 0.78 (≈ 2.07 µM) | 0.2 (≈ 0.531 µM) | 0.78 (≈ 2.07 µM) | 3.13 (≈ 8.32 µM) | 3.13 (≈ 8.32 µM) | 0.2 (≈ 0.531 µM) | CN1COc2c(N3CCC(CN)CC3)c(F)cc3c(=O)c(C(=O)O)cn1c23 [Example 12] | MIC [18, 24]: 0.1 µg/mL (≈ 0.266 µM)
1.56 (≈ 3.86 µM) | 0.2 (≈ 0.495 µM) | 6.25 (≈ 15.5 µM) | 12.5 (≈ 30.9 µM) | 1.56 (≈ 3.86 µM) | 12.5 (≈ 30.9 µM) | 0.78 (≈ 1.93 µM) | 0.2 (≈ 0.495 µM) | 0.1 (≈ 0.247 µM) | 1.56 (≈ 3.86 µM) | 3.13 (≈ 7.74 µM) | 0.39 (≈ 0.964 µM) | 0.39 (≈ 0.964 µM) | 0.78 (≈ 1.93 µM) | 0.2 (≈ 0.495 µM) | 0.39 (≈ 0.964 µM) | 0.78 (≈ 1.93 µM) | 1.56 (≈ 3.86 µM) | 1.56 (≈ 3.86 µM) | 0.1 (≈ 0.247 µM) | CC(=O)CN1CCN(c2c(F)cc3c(=O)c(C(=O)O)cn4c3c2OCN4C)CC1 [Example 40, 9-fluoro-3-methyl-7-oxo-10-[4-(2-oxo-n-propyl)-1-piperazinyl]-2,3-dihydro-7H-pyrido[3,2,1-ij]-1,3,4-benzoxadiazine-6-carboxylic acid] | MIC [18, 24]: 1.56 µg/mL (≈ 3.86 µM)
0.39 (≈ 0.999 µM) | 0.1 (≈ 0.256 µM) | 0.78 (≈ 2 µM) | 6.25 (≈ 16 µM) | 0.39 (≈ 0.999 µM) | 6.25 (≈ 16 µM) | 0.39 (≈ 0.999 µM) | 0.05 (≈ 0.128 µM) | 0.1 (≈ 0.256 µM) | 0.78 (≈ 2 µM) | 0.78 (≈ 2 µM) | 0.1 (≈ 0.256 µM) | 0.1 (≈ 0.256 µM) | 0.39 (≈ 0.999 µM) | 0.1 (≈ 0.256 µM) | 0.1 (≈ 0.256 µM) | 0.78 (≈ 2 µM) | 0.2 (≈ 0.512 µM) | 0.39 (≈ 0.999 µM) | 0.1 (≈ 0.256 µM) | CCCN1CCN(c2c(F)cc3c(=O)c(C(=O)O)cn4c3c2OCN4C)CC1 [Example 43] | MIC [18, 24]: 0.78 µg/mL (≈ 2 µM)

Structure (SMILES) | MIC [1] [µg/mL] | MIC [2] [µg/mL] | MIC [3] [µg/mL] | MIC [4] [µg/mL] | MIC [5] [µg/mL] | MIC [6] [µg/mL] | MIC [7] [µg/mL] | MIC [8] [µg/mL] | MIC [9] [µg/mL] | MIC [10] [µg/mL] | MIC [11] [µg/mL] | MIC [12] [µg/mL] | MIC [13] [µg/mL] | MIC [14, 22] [µg/mL] | MIC [15] [µg/mL] | MIC [16] [µg/mL] | MIC [17, 23] [µg/mL] | MIC [19] [µg/mL] | MIC [20] [µg/mL] | MIC [21] [µg/mL] | other results
CC(=O)N1CCN(c2c(F)cc3c(=O)c(C(=O)O)cn4c3c2OCN4C)CC1 [Example 50, 10-(4-acetyl-1-piperazinyl)-9-fluoro-3-methyl-7-oxo-2,3-dihydro-7H-pyrido[3,2,1-ij]-1,3,4-benzoxadiazine-6-carboxylic acid] | 0.39 (≈ 0.999 µM) | 0.39 (≈ 0.999 µM) | 12.5 (≈ 32 µM) | 25 (≈ 64 µM) | 3.13 (≈ 8.02 µM) | 3.13 (≈ 8.02 µM) | 0.2 (≈ 0.512 µM) | 0.2 (≈ 0.512 µM) | 0.0065 (≈ 0.0167 µM) | 6.25 (≈ 16 µM) | 6.25 (≈ 16 µM) | 1.56 (≈ 4 µM) | 1.56 (≈ 4 µM) | 0.1 (≈ 0.256 µM) | 3.13 (≈ 8.02 µM) | 0.78 (≈ 2 µM) | – | 3.13 (≈ 8.02 µM) | 6.25 (≈ 16 µM) | 0.78 (≈ 2 µM) | MIC ([17]; Staphylococcus aureus, NR2855, read-out: minimum inhibitory concentration (MIC)): 0.39 µg/mL (≈ 0.999 µM); MIC ([18]; Staphylococcus aureus): 0.39 µg/mL (≈ 0.999 µM)
CCNC1CCN(c2c(F)cc3c(=O)c(C(=O)O)cn4c3c2OCN4C)CC1 [Example 35] | 0.78 (≈ 2 µM) | 0.05 (≈ 0.128 µM) | 25 (≈ 64 µM) | 12.5 (≈ 32 µM) | 12.5 (≈ 32 µM) | 6.25 (≈ 16 µM) | 0.78 (≈ 2 µM) | 0.1 (≈ 0.256 µM) | 0.05 (≈ 0.128 µM) | 1.56 (≈ 4 µM) | 3.13 (≈ 8.02 µM) | 0.39 (≈ 0.999 µM) | 0.1 (≈ 0.256 µM) | – | 0.2 (≈ 0.512 µM) | 0.1 (≈ 0.256 µM) | 1.56 (≈ 4 µM) | 1.56 (≈ 4 µM) | 1.56 (≈ 4 µM) | 0.1 (≈ 0.256 µM) | MIC ([14]; Staphylococcus aureus): 0.39 µg/mL (≈ 0.999 µM); MIC ([18]; Staphylococcus aureus): 0.39 µg/mL (≈ 0.999 µM)
